Data from the NIST ThermoML archive (doi:10.1016/j.jct.2013.10.039).

Conditions: Liquid, Closed cell (Static) method

OCc1ccco1 [2-hydroxymethylfuran]
Conditions	vapor or sublimation pressure [kPa]
273.11 K	0.009
283.08 K	0.022
293.16 K	0.053
303.09 K	0.115
313.15 K	0.242
323.15 K	0.475
323.16 K	0.471
331.87 K	0.815
333.15 K	0.89
333.17 K	0.882
341.85 K	1.479
343.15 K	1.597
343.19 K	1.611
351.81 K	2.577
353.15 K	2.755
353.2 K	2.787
362.09 K	4.368
363.15 K	4.588
363.2 K	4.649
372.04 K	7.065
373.15 K	7.398
382.09 K	11.09
383.15 K	11.59
392.15 K	17.1
393.15 K	17.68
402.18 K	25.11
412.11 K	36.53

Cc1ccc(C)o1 [2,5-dimethylfuran]
Conditions	vapor or sublimation pressure [kPa]
313.15 K	13.94
323.15 K	21.54
333.15 K	32.2
343.15 K	46.74
353.15 K	66.08
363.15 K	91.23
373.15 K	123.28
383.15 K	163.43
393.15 K	212.88

CC(=O)CC(C)C [4-methylpentan-2-one]
Conditions	vapor or sublimation pressure [kPa]
313.15 K	5.882
323.15 K	9.417
331.98 K	13.85
333.15 K	14.56
341.81 K	20.72
343.15 K	21.82
351.81 K	30.29
353.15 K	31.8
362.04 K	43.51
363.15 K	45.19
372.03 K	60.56
373.15 K	62.78
382.04 K	82.62
383.15 K	85.44
392.07 K	110.74
393.15 K	114.12
